Experimental data taken from patent US20250102414A1, “A MICROFLUIDIC DEVICE FOR DETECTING AND CHARACTERIZING AT LEAST ONE ANALYTE, FOR EXAMPLE A CELL, IN A SAMPLE FLUID” (TECHNISCHE UNIVERSITEIT EINDHOVEN, priority 2022, published 2025).

Experiments:
MCF-7 cells [1] = experiment: Commercially available apoptosis detection kit for fluorescent imaging (validation); format: cell-based; settings: 1 μM STS, 3 days
Protocol: (§1) In parallel, a control sample was also cultured under the same conditions without drug exposure was also analyzed for comparison. […] For the control sample, only one cluster, which were viable cells, were identified with 97% ratio for the total number of events. For the treated sample, 3 clusters were identified for viable, early apoptotic, and late apoptotic states with 44%, 19%, and 37% ratios, respectively. For validation, a commercially available apoptosis detection kit for fluorescent imaging were used and it provided the ratios of 47% viable and 53% apoptotic for the treated sample. A high-resolution drug response analysis were performed in a fully label free manner while keeping the cells intact, where the imaging required sample preparation and fixation of the cells, which kills the cells and the possibility of further functional analysis options.

MCF-7 cells [2] = experiment: Label-free drug response analysis by electrical impedance (opacity) with the microfluidic device; format: cell-based; settings: 1 μM STS, cultured 3 days under drug exposure, opacity clusters
Protocol: FIGS. 14a and 14b show the results of a drug response analysis for MCF-7 cells. As a first step, the viability of the cells was measured before and after analyzing these cells using one of the versions of the devices described in the present disclosure. […] Then, STS (with 1 μM concentration) were added to this well and the cells were cultured for another 3 days under the exposure of the drug.
as §1
Accordingly, embodiments of the present disclosure are capable of achieving measurement results when the electric field generating unit in the embodiments of the present disclosure delivers a voltage drop between electrodes of the present disclosure within the range of 0.1 to 0.5 V and, preferably, within the range of 0.2 to 0.4 V. The results shown in FIGS. 12, 13 and 14 were obtained with voltage values varying between 0.2-0.4 V for frequencies between 1-400 MHz with the maximum reachable voltage drop of 0.12 V, which is below the electroporation limit. […] These to be determined based on the sample, used electrolyte (medium conductivity), peripheral electronics (analyzers, power sources, etc.), size of the measurement volume, and the requirements of the analysis.

With `CN[C@@H]1C[C@H]2O[C@@](C)([C@@H]1OC)n1c3ccccc3c3c4c(c5c6ccccc6n2c5c31)C(=O)NC4` [STS] the ratio apoptotic (MCF-7 cells [1]) was 53%, the ratio viable (MCF-7 cells [1]) was 47% and the “ratio of early apoptotic cluster to total number of events” value (MCF-7 cells [2]) was 19%. The “ratio of late apoptotic cluster to total number of events” value (MCF-7 cells [2]) was 37% and the “ratio of viable cluster to total number of events” value (MCF-7 cells [2]) was 44%.
